Data: ChEMBL document CHEMBL1201862, “PubChem BioAssay data set” (2004)
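Where inhibition never reached the appropriate level, the endpoint shown equals the highest concentration tested. Otherwise, values were interpolated linearly from a five-concentration, 48-hour dose response in 96-well plates. GI50 = concentration required for 50% inhibition of growth.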 Calls of active or inactive are those of the source. Rule as the data show it: active = GI50 up to about 1.1 µM and inactive = higher.

How the values were obtained:
Assay in all cases: DTP human tumour cell line panel, 48 h
SK-MEL-5 = test system: SK-MEL-5
NCI-H522 = test system: NCI-H522
K562 = test system: K562
PC-3 = test system: PC-3
CAKI-1 = test system: CAKI-1
A498 = test system: A498
HCT-15 = test system: HCT-15
RXF 393 = test system: RXF 393
OVCAR-4 = test system: OVCAR-4
HL-60 = test system: HL-60
SK-OV-3 = test system: SK-OV-3
M14 = test system: M14
786-0 = test system: 786-0
UO-31 = test system: UO-31
MCF7 = test system: MCF7
KM12 = test system: KM12
Hs-578T = test system: Hs-578T
RPMI-8226 = test system: RPMI-8226
HCC 2998 = test system: HCC 2998
BT-549 = test system: BT-549

Structure (SMILES) | GI50 (SK-MEL-5) | GI50 (NCI-H522) | GI50 (K562) | GI50 (PC-3) | GI50 (CAKI-1) | GI50 (A498) | GI50 (HCT-15) [µM] | GI50 (RXF 393) | GI50 (OVCAR-4) | GI50 (HL-60) | GI50 (SK-OV-3) | GI50 (M14) | GI50 (786-0) | GI50 (UO-31) | GI50 (MCF7) | GI50 (KM12) | GI50 (Hs-578T) | GI50 (RPMI-8226) | GI50 (HCC 2998) | GI50 (BT-549)
Cc1ccc2nc3ccccc3c(C3C4C(=O)N(c5ccc(Br)cc5Cl)C(=O)C4ON3C(C(N)=O)c3ccccc3)c2c1 (centres undefined) | 19.1 µM (inactive) | 13.6 µM (inactive) | > 25 µM (inactive) | > 25 µM (inactive) | 4.9 µM (inactive) | > 25 µM (inactive) | 5.77 | 13.3 µM (inactive) | 19.7 µM (inactive) | > 25 µM (inactive) | > 25 µM (inactive) | 11.6 µM (inactive) | 20.8 µM (inactive) | 7.41 µM (inactive) | 11.6 µM (inactive) | > 25 µM (inactive) | > 25 µM (inactive) |  |  | 
C=C=C(C(=O)OC)[S+]([O-])c1ccc([N+](=O)[O-])cc1[N+](=O)[O-] (centres undefined) | 36.2 µM (inactive) | 14.2 µM (inactive) | 20 µM (inactive) |  | 25.9 µM (inactive) | > 100 µM (inactive) | 21.5 | 30.7 µM (inactive) | 35.6 µM (inactive) | 20.7 µM (inactive) | > 84.7 µM (inactive) | 30.7 µM (inactive) | 39.7 µM (inactive) | 43.4 µM (inactive) |  | 33.7 µM (inactive) |  | 21.7 µM (inactive) | 14.7 µM (inactive) | 
COCc1cc2c(cc1/C=C/[N+](=O)[O-])OCO2 | 19.4 µM (inactive) | 19.2 µM (inactive) | > 100 µM (inactive) | 12.1 µM (inactive) | 19.6 µM (inactive) | 17 µM (inactive) | 19.7 | 18 µM (inactive) |  | 23.4 µM (inactive) | 17.9 µM (inactive) | 16.7 µM (inactive) | 16.9 µM (inactive) | 17 µM (inactive) | 29.7 µM (inactive) | 20.8 µM (inactive) | 19.5 µM (inactive) | 76 µM (inactive) | 17.5 µM (inactive) | 
Nc1nc(Nc2ccccc2)c2[nH]cnc2n1 | 86.5 µM (inactive) | 65.5 µM (inactive) | 62.5 µM (inactive) | > 100 µM (inactive) | 49.2 µM (inactive) | 20.3 µM (inactive) | 52 | > 100 µM (inactive) | > 100 µM (inactive) | 37.3 µM (inactive) | 84.5 µM (inactive) | > 100 µM (inactive) | > 100 µM (inactive) | 34.8 µM (inactive) | > 100 µM (inactive) | 35.6 µM (inactive) |  | 53.7 µM (inactive) | 86.3 µM (inactive) | 
CCOC(=O)c1cc(I)c(-c2cc(C)no2)n1C | 33.1 µM (inactive) | 33.4 µM (inactive) | 26.8 µM (inactive) | 38.5 µM (inactive) | 20.3 µM (inactive) | 23.7 µM (inactive) | 49.9 | 15.4 µM (inactive) | 21.8 µM (inactive) | 26.1 µM (inactive) | > 100 µM (inactive) | 94 µM (inactive) | 43.5 µM (inactive) | 37.9 µM (inactive) |  | 21.1 µM (inactive) |  | 19.3 µM (inactive) |  | 64.7 µM (inactive)
O=C(O)CNc1ncc2c(n1)-c1ccccc1OC2 | > 100 µM (inactive) |  | > 100 µM (inactive) | > 100 µM (inactive) | > 100 µM (inactive) |  | > 100 | > 100 µM (inactive) | > 100 µM (inactive) | 64.3 µM (inactive) | > 100 µM (inactive) | > 100 µM (inactive) | > 100 µM (inactive) | > 100 µM (inactive) | > 100 µM (inactive) | > 100 µM (inactive) | > 100 µM (inactive) | > 100 µM (inactive) |  | 
O=C(O)/C=C\C(=O)c1ccc(Cl)cc1 | > 83.9 µM (inactive) | > 100 µM (inactive) | 31.1 µM (inactive) |  | 24.7 µM (inactive) | 79.8 µM (inactive) | 20.7 | 21.5 µM (inactive) | 29.6 µM (inactive) | 23.5 µM (inactive) | > 100 µM (inactive) | 18.5 µM (inactive) | 28.9 µM (inactive) | 33.9 µM (inactive) |  | 52.1 µM (inactive) |  | 25.2 µM (inactive) | > 100 µM (inactive) | 
COc1cc(Br)c(/C=N/N=C(\N)NO)cc1OC | 6.78 µM (inactive) | 15.2 µM (inactive) | 15.7 µM (inactive) |  | 14.7 µM (inactive) | 32.8 µM (inactive) | 36 | 21.9 µM (inactive) | 54.5 µM (inactive) | 26.9 µM (inactive) | 10.6 µM (inactive) | 16.4 µM (inactive) | 18.4 µM (inactive) | 20.3 µM (inactive) |  | 15.5 µM (inactive) |  | > 100 µM (inactive) | 12.3 µM (inactive) | 
